Tests used:
KMS-11 cells = test: KMS11-luciferase intravenous multiple myeloma mouse model with doxycycline-inducible NSD2 shRNA; assay type: in vivo, SCID-beige mice
Protocol: Six- to eight-week-old female SCID-beige mice (Vital River, Beijing, China) were injected intravenously with 10^7 KMS-11 cells stably transduced with inducible NSD2 shRNA (sh4: 5′ ACATGCTCACTATAGACAA′3 (SEQ ID NO:8)) and tagged with luciferase. The injection of KMS11 cells was in 100 μl PBS with 50% Matrigel, with 8-10 mice per group/treatment. To induce the shRNA expression, mice were fed with water containing 5% sucrose and 0.2 mg/ml doxycycline. Images were taken weekly (with 200 μl/mouse D-luciferase intraperitoneal injection), and pathology such as paralysis was monitored.

NSD2 = test: Western blot of NSD2 knockdown by inducible shRNA in ALL cell lines; assay type: cell-based, human; details: induced with doxycycline, FIG. 13
Protocol: To test the hypothesis that the NSD2 E1099K mutation is important in the pathogenesis of ALL cells, several shRNA knockdown experiments were done. In these experiments, NSD2 shRNA sequences were cloned into pLKO-Tet-On vectors with the H1 promoter or U6 promoter. shRNA lentivitus was generated as described above. Cell lines were infected and selected by puromycin. All tet inducible shRNA cell lines are cultured using tet system approved FBS (Clontech, Cat#: 631106, Mountain View, Calif.). NSD2 Tet-inducible cellular proliferation assay was set up as the following. Cultured cells were placed at 0.2 million cells/ml in 10 ml and split into two wells (5 ml/well) in a 6-well plate. Doxycycline (100 ng/ml final) was added to one well at assay initiation and every 2-3 days to induce NSD2 Tet-inducible shRNAs. On days 4 and 8 the assayed cells (with and without doxycycline) were counted for viability and cell concentration (10^6 cell/ml) with Vi-cell. Assayed cells were then reset to 0.2×10^6 cells/ml in 5 ml every 4 days to keep the cells proliferating in log-phase. On day 8, 1 million cells were collected from assayed cells for Western blot analysis. The shRNA sequences used in the experiments were the following, and are used with this nomenclature in FIG. 13. […]

SEM cells = test: NSD2 Tet-inducible cellular proliferation assay, SEM cells; assay type: cell-based; details: SEM cells (E1099K), shRNA induced vs U6-empty control, FIG. 14
Protocol: (§1) To test the hypothesis that the NSD2 E1099K mutation is important in the pathogenesis of ALL cells, several shRNA knockdown experiments were done. In these experiments, NSD2 shRNA sequences were cloned into pLKO-Tet-On vectors with the H1 promoter or U6 promoter. shRNA lentivitus was generated as described above. Cell lines were infected and selected by puromycin. All tet inducible shRNA cell lines are cultured using tet system approved FBS (Clontech, Cat#: 631106, Mountain View, Calif.). NSD2 Tet-inducible cellular proliferation assay was set up as the following. Cultured cells were placed at 0.2 million cells/ml in 10 ml and split into two wells (5 ml/well) in a 6-well plate. Doxycycline (100 ng/ml final) was added to one well at assay initiation and every 2-3 days to induce NSD2 Tet-inducible shRNAs. On days 4 and 8 the assayed cells (with and without doxycycline) were counted for viability and cell concentration (10^6 cell/ml) with Vi-cell. Assayed cells were then reset to 0.2×10^6 cells/ml in 5 ml every 4 days to keep the cells proliferating in log-phase. On day 8, 1 million cells were collected from assayed cells for Western blot analysis. The shRNA sequences used in the experiments were the following, and are used with this nomenclature in FIG. 13.
(§2) The shRNAs described above were then used in a cell proliferation assay. […]

JVM-3 line = test: NSD2 Tet-inducible cellular proliferation assay, JVM-3 cells; assay type: cell-based; details: JVM-3 line (no E1099K), shRNA induced vs U6-empty control, FIG. 14
Protocol: as §1, §2

[1] = system: H3K36me2 and H3K27me3 methylation; test: Western blot of histone H3 methylation status after shRNA knockdown in SEM cells; assay type: cell-based; details: NSD2 E1099K knocked down, FIG. 16
Protocol: NSD2 shRNA sequences were cloned into pLKO-Tet-On vectors with H1 promoter or U6 promoter. shRNA lentivitus was generated as described above. Cell lines were infected and selected by puromycin. All tet inducible shRNA cell lines are cultured using tet system approved FBS (Clontech, Cat#: 631106). The NSD2 Tet-inducible cellular proliferation assay was set up as follows. Cultured cells were placed at 0.2 million cells/ml in 10 ml and split into two wells (5 ml/well) in 6-well plate. Doxycycline (100 ng/ml final) was added to one well at assay initiation and every 2-3 days to induce NSD2 Tet-inducible shRNAs. On days 4 and 8 the assayed cells (with and without doxycycline) were counted for viability and cell concentration (10^6 cell/ml) with Vi-cell. Assayed cells were then reset to 0.2×10^6 cells/ml in 5 ml every 4 days to keep the cells proliferating in log-phase. On days 8, 1 million cells were collected from assayed cells for Western blot analysis. The shRNA sequences used in the experiments were the V17 (SEQ ID NO. 9) and 9A5 (SEQ ID NO. 10) as described in Example 11 above.
For example, this is clearly seen in SEM cells wherein NSD2 E1099K is knocked down with […]. The amount of NSD2 present is very low, as is H3K36me2 methylation.

sh4: inducible NSD2 shRNA, 5' ACATGCTCACTATAGACAA 3' (SEQ ID NO:8)
tumor growth (KMS-11 cells; KMS11-luciferase with inducible NSD2 shRNA, induction with doxycycline for 29 days, FIG. 3A): greatly inhibited tumor growth
luciferase activity of tumors (KMS-11 cells; time course with vs without doxycycline induction, FIG. 3B): greatly reduced

9A5 shRNA: NSD2 shRNA 5' GAATAAGCCTTACGGGAAA 3' (SEQ ID NO. 10), targets NSD2 isoforms containing the SET domain
expression of NSD2 and MMSET1 (NSD2): capable of reducing expression of NSD2 and MMSET1
reduction of cell proliferation (SEM cells): about 60%
reduction of cell proliferation (JVM-3 line): about 15%
H3K27me3 methylation [1]: robust H3K27me3 methylation
amount of NSD2 and H3K36me2 methylation [1]: very low

— US20150354006A1, “MARKERS FOR ACUTE LYMPHOBLASTIC LEUKEMIA” (Novartis AG, priority 2012, published 2015)
